TGI and GI50 data for 15 molecules are collected here from PubChem BioAssay (NCI).

“And” between values parts separate entries of the source, which are not always exact repeats. Equal values may be shown once.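 Protocol summary: plate cells (96-well), add compound at 5 concentrations, incubate 48 h, interpolate endpoints linearly. Abbreviation: GI50, concentration required for 50% inhibition of growth. TGI: total growth inhibition.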

Some test systems named below: UACC-62 melanoma; SN12C renal; COLO 205 colon; MALME-3M melanoma; SNB-75 CNS; CCRF-CEM leukemia; OVCAR-8 ovarian; HCT-116 colon; MCF7 breast.
Holding throughout (experiment): NCI tumour cell line growth inhibition, 48 h

Consider `Clc1cc2nc[nH]c2cc1Cl`, for which the TGI was greater than 100 µM in the assay with UACC-62 melanoma; greater than 100 µM in the assay with SN12C renal; greater than 100 µM in the assay on COLO 205 colon; greater than 100 µM in the assay on MALME-3M melanoma; 83.9 µM in the assay on SNB-75 CNS; greater than 100 µM in the assay on CCRF-CEM leukemia. This molecule yielded a TGI with OVCAR-8 ovarian greater than 100 µM.
With `CCOC(=O)NC(=O)c1cn(CC(=O)NCC(=O)NCC(=O)N2CCN(CCn3c(C)nc(C(N)=O)c3N)CC2)c(=O)[nH]c1=O`, the TGI with UACC-62 melanoma, in the assay with SN12C renal, in the assay on COLO 205 colon, in the assay with MALME-3M melanoma, with SNB-75 CNS and with CCRF-CEM leukemia was greater than 100 µM each time. The TGI with HCT-116 colon and with OVCAR-8 ovarian was greater than 100 µM in each case.
In the case of `CCCCCCCCCCCCCCCCCc1cc(Cl)nc(Cl)n1`, the TGI in the assay on UACC-62 melanoma, in the assay on SN12C renal, in the assay with MALME-3M melanoma, with SNB-75 CNS, in the assay on MCF7 breast and with CCRF-CEM leukemia was greater than 100 µM throughout. Further, the TGI in the assay on OVCAR-8 ovarian is greater than 100 µM.
As for `O=c1/c(=C/c2ccccc2O)sc2nc3ccccc3n12`, the TGI in the assay with UACC-62 melanoma was 80.6 µM; in the assay with SN12C renal it was greater than 100 µM; with MALME-3M melanoma, greater than 100 µM; in the assay on SNB-75 CNS, greater than 100 µM; in the assay with CCRF-CEM leukemia, 45.6 µM; in the assay on HCT-116 colon it was greater than 100 µM. Further, in the assay on OVCAR-8 ovarian, the TGI was greater than 100 µM.
For `Clc1cc(Cl)cc(C2SCc3nc4ccccc4n32)c1` (stereo unspecified), the TGI was greater than 100 µM in the assay on UACC-62 melanoma; 29.9 µM in the assay with SN12C renal; 33.9 µM with COLO 205 colon; 62.6 µM in the assay on MALME-3M melanoma; greater than 100 µM in the assay with SNB-75 CNS; 70.6 µM with CCRF-CEM leukemia. The TGI in the assay with OVCAR-8 ovarian worked out at 33.2 µM.
Turning to `OCC(O)C(O)C(O)c1nn[nH]n1` (stereo unspecified), the TGI in the assay on UACC-62 melanoma, in the assay with SN12C renal, with COLO 205 colon, with MALME-3M melanoma, in the assay with SNB-75 CNS and in the assay on CCRF-CEM leukemia was greater than 100 µM each time. Further, the TGI in the assay with HCT-116 colon and in the assay on OVCAR-8 ovarian was greater than 100 µM in each case.
`C=CC1CC12C(=O)C1OC2(C)C2C(=O)c3c(O)cccc3C(=O)C12` (stereo unspecified): the GI50 in the assay on SN12C renal was 46.8 µM; with COLO 205 colon it was 31.7 µM; in the assay with MALME-3M melanoma it was 17.1 µM; in the assay with SNB-75 CNS, 72.4 µM; in the assay with MCF7 breast, 23.2 µM; in the assay with CCRF-CEM leukemia, 26 µM. For the same molecule, the figures for the GI50 in the assay with HCT-116 colon and with OVCAR-8 ovarian were 38.1 µM and 37.8 µM, respectively. In addition, the TGI with SN12C renal is greater than 100 µM; with COLO 205 colon, greater than 100 µM; in the assay with MALME-3M melanoma, 54.5 µM; in the assay with SNB-75 CNS it was greater than 100 µM; in the assay on MCF7 breast it was 74.5 µM; with CCRF-CEM leukemia it was greater than 100 µM. For the same molecule, the TGI with HCT-116 colon and in the assay on OVCAR-8 ovarian was greater than 100 µM throughout.
Consider `CC(C)(C)c1cc(O)c2c(c1O)C(=O)CCC2`, for which the TGI is 80.5 µM in the assay on UACC-62 melanoma; greater than 100 µM with SN12C renal; greater than 100 µM in the assay with COLO 205 colon; greater than 100 µM in the assay on SNB-75 CNS; greater than 100 µM in the assay with CCRF-CEM leukemia; greater than 100 µM in the assay on HCT-116 colon. In the assay with OVCAR-8 ovarian, this molecule registered a TGI greater than 100 µM.
On to `CO[C@H](C(=O)O[C@H]1C(=O)N2CCC3CCC1C32C)c1ccccc1` (stereo partly specified), for which the TGI with UACC-62 melanoma, in the assay with SN12C renal, with COLO 205 colon, with MALME-3M melanoma, with SNB-75 CNS and in the assay on CCRF-CEM leukemia was greater than 100 µM each time. Further, the TGI in the assay on HCT-116 colon and with OVCAR-8 ovarian was greater than 100 µM throughout.
Take `Cc1cc(Cl)ccc1NC(=O)C1C(=O)C(=O)N(c2ccc(Cl)cc2C)C1=O` (stereo unspecified): the TGI with UACC-62 melanoma, in the assay with SN12C renal, in the assay with COLO 205 colon, in the assay with MALME-3M melanoma, in the assay with SNB-75 CNS and in the assay on CCRF-CEM leukemia was greater than 100 µM throughout. Moreover, the TGI in the assay on HCT-116 colon and in the assay with OVCAR-8 ovarian was greater than 100 µM throughout.
`C/C(=N\NC(=O)C[n+]1ccccc1)c1sc(-c2nc(C)c(/C(C)=N/NC(=O)C[n+]3ccccc3)s2)nc1C`: the TGI with UACC-62 melanoma, in the assay on SN12C renal, in the assay on COLO 205 colon, with MALME-3M melanoma, in the assay on SNB-75 CNS and in the assay with HCT-116 colon was greater than 100 µM in each case. The molecule further had a TGI with OVCAR-8 ovarian greater than 100 µM.
In the case of `CC[C@@]1(O)C(=O)OCc2c1cc1n(c2=O)Cc2cc3c([N+](=O)[O-])c(O)ccc3nc2-1`, the GI50 in the assay with UACC-62 melanoma was 0.0255 µM; in the assay on SN12C renal it was 0.057 µM; with COLO 205 colon, 3.56 µM; in the assay with MALME-3M melanoma, 1.06 µM; with SNB-75 CNS it was 0.151 µM; with CCRF-CEM leukemia it was less than 0.026 µM. The GI50 in the assay with HCT-116 colon is 0.431 µM; with OVCAR-8 ovarian, 0.249 µM. The TGI in the assay with UACC-62 melanoma was 0.265 µM; with SN12C renal, 4.77 µM; in the assay with COLO 205 colon, 27.3 µM; with MALME-3M melanoma, 12.7 µM; in the assay with SNB-75 CNS, 1.12 µM; with CCRF-CEM leukemia it was 0.469 µM. Moreover, the TGI in the assay on HCT-116 colon amounted to 7.11 µM; in the assay with OVCAR-8 ovarian it was 12.7 µM.
With `O=C1C2c3[nH]c4ccccc4c3C3CCC(c4ccccc4)CC3C2C(=O)N1c1ccccc1` (stereo unspecified), the TGI is greater than 100 µM with UACC-62 melanoma; greater than 100 µM in the assay on SN12C renal; greater than 100 µM in the assay on COLO 205 colon; greater than 100 µM in the assay on MALME-3M melanoma; 55.9 µM in the assay with SNB-75 CNS; greater than 100 µM in the assay with CCRF-CEM leukemia. The molecule also gave a TGI with OVCAR-8 ovarian greater than 100 µM.
Turning to `CC1OC(OC23C(=O)CC(C)(O)CC2(O)C=CC2=C3C(=O)c3ccc(C4CC(OC5CCC(OC6CC(O)C(O)C(C)O6)C(C)O5)C(O)C(C)O4)c(O)c3C2=O)CCC1O` (stereo unspecified), the TGI in the assay with UACC-62 melanoma is 30 µM and 27.1 µM; with SN12C renal, 32.5 µM and 30.1 µM; in the assay with COLO 205 colon, 11.8 µM and 8.15 µM; in the assay on MALME-3M melanoma, 8.48 µM and 3.49 µM; with SNB-75 CNS, 32.5 µM and 29.9 µM; with CCRF-CEM leukemia, greater than 100 µM. Also, the TGI in the assay with HCT-116 colon is 28.5 µM and 18.6 µM; in the assay on OVCAR-8 ovarian, 30.1 µM and 17.6 µM. Besides, the GI50 was 15.1 µM and 5.78 µM with HCT-116 colon; 16.5 µM and 5.32 µM in the assay on OVCAR-8 ovarian.
Consider `Cc1ccc2oc(=O)cc(CC(=O)O)c2c1`, for which the TGI in the assay on UACC-62 melanoma, in the assay with SN12C renal, with COLO 205 colon, in the assay on MALME-3M melanoma, with SNB-75 CNS and in the assay on CCRF-CEM leukemia was greater than 100 µM each time. Further, the TGI with HCT-116 colon and in the assay on OVCAR-8 ovarian was greater than 100 µM in each case.
